Read-outs that look alike come from different tables or passages of the source.
What was measured:
[1] = target: T. brucei N-myristoyl transferase (Trypanosoma brucei brucei (strain 927/4 GUTat10.1), UniProt Q388H8); experiment: biochemical; assay type: biochemical
[2] = test system: Trypanosome (T. brucei brucei); experiment: In-vitro antitrypanosomal efficacy assay (cell growth, resazurin); assay type: cell-based
Procedure: To column 12, 200 μl media was added to provide a no cells control. Plates were then incubated at 37° C. in an atmosphere of 5% CO2 for 69 hours, before the addition of 20 μl of 500 μM rezasurin solution, and a further incubation period of 4 hours. […] Concentration effect curves were fitted using non-linear regression using XLFit 4.2 and EC50 values determined.

[3] = value with no enzyme tag in the cell, taken as T. brucei NMT, read-out: IC50 (μM) NMT Enzyme
[4] = value printed without enzyme tag in the NMT Enzyme column (taken as T. brucei NMT), read-out: IC50 (μM) NMT Enzyme
[5] = T. brucei NMT, value without parentheses, read-out: IC50 (μM) NMT Enzyme (T. brucei NMT)
[6] = T. brucei brucei, blood stream form, variant 221

Chain of T. brucei N-myristoyl transferase (Q388H8 1-446): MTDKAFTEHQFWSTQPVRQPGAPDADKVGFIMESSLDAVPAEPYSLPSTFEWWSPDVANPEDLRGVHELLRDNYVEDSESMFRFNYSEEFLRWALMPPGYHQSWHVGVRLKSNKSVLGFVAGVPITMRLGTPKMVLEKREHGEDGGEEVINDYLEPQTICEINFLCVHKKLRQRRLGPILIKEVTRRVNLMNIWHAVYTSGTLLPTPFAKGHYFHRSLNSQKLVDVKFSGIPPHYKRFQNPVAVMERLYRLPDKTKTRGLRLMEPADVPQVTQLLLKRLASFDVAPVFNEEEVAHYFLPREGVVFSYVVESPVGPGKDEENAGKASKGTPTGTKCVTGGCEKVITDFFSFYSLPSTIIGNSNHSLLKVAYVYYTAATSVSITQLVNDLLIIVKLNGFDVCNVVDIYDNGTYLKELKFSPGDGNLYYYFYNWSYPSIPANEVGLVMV

SMILES	ED50 (μM) T. brucei ([2]; T. brucei cell growth)	IC50 [1, 4]	further results
Cc1nn(C)c(C)c1N[S+](=O)([O-])c1c(Cl)cc(-c2ccnc(NCCN)c2)cc1Cl	>1 µM		IC50 [1, 3]: 1 µM
Cc1nn(C)c(C)c1N[S+](=O)([O-])c1ccc(-n2cccn2)cc1 [DDD71294]	>1 µM	4.8 µM	
Cc1nn(C)c(C)c1N[S+](=O)([O-])c1ccc2c(c1)OCO2 [DDD71282]	>1 µM	4 µM	
Cc1nn(C)c(C)c1NS(=O)(=O)c1c(Cl)cc(-c2ccnc(N3CCC(N(C)C)C3)c2)cc1Cl (stereo not drawn) [DDD86292, 2,6-Dichloro-4-[2-(3-dimethylamino-pyrrolidin-1-yl)-pyridin-4-yl]-N-(1,3,5-trimethyl-1 H-pyrazol-4-yl)-benzenesulfonamide]	>1 µM		IC50 [1, 3]: 1 µM
Cc1nc(-c2ccc([S+](=O)([O-])Nc3c(C)nn(C)c3C)cc2)cs1 [DDD71278]	>1 µM	12.1 µM	
Cc1nn(C)c(C)c1N[S+](=O)([O-])c1cc(Cl)sc1Cl [DDD61495]	>1 µM	6.4 µM	
Cc1c(N[S+](=O)([O-])c2ccc(CCCCC3CCNCC3)cc2)c(CC(C)C)nn1C [DDD100158]			IC50 [1, 5]: 0.006 µM; ED50 (μM) T. brucei [2, 6]: 0.048 µM
COCCNCc1cccc(-c2ccc([S+](=O)([O-])Nc3c(CC(C)C)nn(C)c3C)cc2)c1 [DDD100797]			IC50 [1, 5]: 0.023 µM; ED50 (μM) T. brucei [2, 6]: 0.492 µM
Cc1nn(C)c(C)c1N[S+](=O)([O-])c1ccc2c(c1)OCCO2 [DDD16771]	>1 µM	4 µM	
Cc1cc(N2CCCC2=O)cc(C)c1[S+](=O)([O-])Nc1c(C)nn(C)c1C [DDD22988]	>1 µM	8.3 µM	
Cc1c(N[S+](=O)([O-])c2ccc(-c3cc(CN(C)C)ccc3F)cc2)c(CC(C)C)nn1C [DDD99827]			IC50 [1, 5]: 0.007 µM; ED50 (μM) T. brucei [2, 6]: 0.019 µM
Cc1nn(C)c(C)c1N[S+](=O)([O-])c1c(F)cc(-c2ccnc(N3CCNCC3)c2)cc1F [DDD88323]	0.005 µM		IC50 [1, 3]: 0.004 µM
Cc1noc(C)c1N[S+](=O)([O-])c1ccc(CCCN2CCN(C)CC2)cc1 [DDD88190]	31.0 µM		IC50 [1, 3]: 1.1 µM
Cc1nn(C)c(C)c1N[S+](=O)([O-])c1c(Cl)cc(-c2cccc3cnccc23)cc1Cl [DDD73278]	>1 µM	26.9 µM	
Cc1nn(C)c(C)c1N[S+](=O)([O-])c1ccc(Cl)c(Cl)c1 [DDD00071594]	>1 µM	9.9 µM	
Cc1nn(C)c(C)c1N[S+](=O)([O-])c1ccc(CSc2ccc(Cl)cc2Cl)cc1 [DDD85610]	>1 µM	61.6 µM	
COc1cc(C)c([S+](=O)([O-])Nc2ccccc2)c(C)c1C [DDD71292]	>1 µM	> 100 µM	
Cc1nn(C)c(C)c1N[S+](=O)([O-])c1ccc2c(c1)OCCCO2 [DDD71230]	>1 µM	3.5 µM	
Cc1nn(C)c(C)c1N[S+](=O)([O-])c1ccc(CN2CCCCC2)cc1 [DDD73226]	>1 µM	> 100 µM	
Cc1nn(C)c(C)c1N[S+](=O)([O-])c1c(Cl)cc(-c2cc3ccccc3o2)cc1Cl [DDD73280]	>1 µM	20.7 µM	

SMILES	ED50 (μM) T. brucei ([2]; T. brucei cell growth)	IC50 [1, 4]	further results
Cc1nn(C)c(C)c1N[S+](=O)([O-])c1ccc(N2CCC(N3CCNCC3)C2)nc1 (stereo not drawn) [DDD88008]	18.0 µM		IC50 [1, 3]: 0.11 µM
CCCN(c1c(C)nn(C)c1C)[S+](=O)([O-])c1c(Cl)cc(Br)cc1Cl [DDD85594]	21.0 µM	3.2 µM	
Cc1nn(C)c(C)c1N[S+](=O)([O-])c1ccc(NCCCn2ccnc2)nc1 [DDD85633]	>50 µM		IC50 [1, 3]: 2 µM
CCN(CC)Cc1cccc(-c2cc(Cl)c([S+](=O)([O-])Nc3c(CC(C)C)nn(C)c3C)c(Cl)c2)c1 [DDD99747]	0.067 µM		IC50 [1, 3]: 0.008 µM
Cc1nn(C)c(C)c1N[S+](=O)([O-])c1ccc(CN2CCCc3ccccc32)cc1 [DDD85596]	>1 µM	41.7 µM	
Cc1nn(C)c(C)c1N[S+](=O)([O-])c1ccc(NCc2ccc(Cl)c(Cl)c2)nc1 [DDD73325]	>1 µM	12.8 µM	
CC(=O)Nc1cc(C)c([S+](=O)([O-])Nc2c(C)nn(C)c2C)s1 [DDD73219]	>1 µM	69 µM	
Cc1nn(C)c(C)c1N[S+](=O)([O-])c1ccc(NCCN2CCN(C(C)C)CC2)nc1 [DDD86298]	>1 µM		IC50 [1, 3]: 1 µM
Cc1nn(C)c(C)c1N[S+](=O)([O-])c1ccc(CNCCN2CCCCC2)cc1 [DDD85643]	>1 µM		IC50 [1, 3]: 8 µM
Cc1nn(C)c(C)c1N[S+](=O)([O-])c1ccc(NCC(C)c2ccccc2)nc1 (stereo not drawn) [DDD73495]	7.8 µM	0.96 µM	
Cc1cc(CN(C)C)cc(-c2ccc([S+](=O)([O-])Nc3c(CC(C)C)nn(C)c3C)cc2)c1 [DDD99817]	0.047 µM		IC50 [1, 3]: 0.014 µM
COc1cc(C)c([S+](=O)([O-])Nc2cccnc2)c(C)c1C [DDD71288]	>1 µM	> 100 µM	
COc1ccccc1CNc1ccc([S+](=O)([O-])Nc2c(C)nn(C)c2C)cn1 [DDD73328]	19.1 µM	2.4 µM	
Cc1nn(C)c(C)c1N[S+](=O)([O-])c1ccc(NCc2nc3ccccc3s2)nc1 [DDD73477]	6.0 µM	0.46 µM	
Cc1nn(C)c(C)c1N[S+](=O)([O-])c1sc2ccc(F)cc2c1C [DDD73221]	>1 µM	6.6 µM	
COc1cc(C)c([S+](=O)([O-])Nc2c(C)n[nH]c2C)c(C)c1C [DDD71601]	>1 µM	> 100 µM	
COc1cc(C)c([S+](=O)([O-])Nc2ccncc2)c(C)c1C [DDD71280]	>1 µM	> 100 µM	
Cc1nn(C)c(C)c1N[S+](=O)([O-])c1ccc(N2CCN(C)CC2)nc1 [DDD73236]	>1 µM	11.9 µM	
Cc1nn(C)c(C)c1N[S+](=O)([O-])c1cc(F)c(CCCN2CCN(C)CC2)cc1F [DDD90059]	0.48 µM		IC50 [1, 3]: 0.054 µM
Cc1nn(C)c(C)c1N[S+](=O)([O-])c1ccc(CNCCN(C)C)cc1 [DDD85640]	>50 µM		IC50 [1, 3]: 3.3 µM

SMILES	ED50 (μM) T. brucei ([2]; T. brucei cell growth)	IC50 [1, 4]	further results
Cc1nn(C)c(C)c1N[S+](=O)([O-])c1ccc(N2CCc3ccccc3C2)nc1 [DDD73227]	8.1 µM	0.9 µM	
Cc1nn(C)c(C)c1N[S+](=O)([O-])c1ccc(CSc2ccc(C(C)(C)C)cc2)cc1 [DDD85609]	>1 µM	69.5 µM	
Cc1nn(C)c(C)c1NS(=O)(=O)c1ccc(-c2ccnc(N3CCNC(c4ccccc4)C3)c2)cc1 (stereo not drawn) [DDD87756, 4-[2-(3-Phenyl-piperazin-1-yl)-pyridin-4-yl]-N-(1,3,5-trimethyl-1H-pyrazol-4-yl)-benzenesulfonamide]	>1 µM		IC50 ([1]; read-out: IC50 (μM) NMT Enzyme): 0.76 µM
Cc1nn(C)c(C)c1N[S+](=O)([O-])c1c(Cl)cc(C#CCN2CCCCC2)cc1Cl [DDD86476]	>1 µM		IC50 [1, 3]: 5.9 µM
Cc1nn(C)c(C)c1N[S+](=O)([O-])c1ccc(NCCCN(C)C)nc1 [DDD85629]	38.0 µM	2.4 µM	
Cc1c(N[S+](=O)([O-])c2c(Cl)cc(CCCC3CCN(C)CC3)cc2Cl)c(CC(C)C)nn1C [DDD99743]	0.005 µM		IC50 [1, 3]: 0.003 µM
Cc1c(N[S+](=O)([O-])c2ccc(CCCCC3CCN(C)CC3)cc2)c(CC(C)C)nn1C [DDD100162]			IC50 [1, 5]: 0.01 µM; ED50 (μM) T. brucei [2, 6]: 0.093 µM
Cc1nn(C)c(C)c1N[S+](=O)([O-])c1ccc(CNc2ccc(Oc3ccccc3)cc2)cc1 [DDD73502]	>1 µM	4.8 µM	
Cc1cnn(-c2ccc(CNc3ccc([S+](=O)([O-])Nc4c(C)nn(C)c4C)cn3)cc2)n1 [DDD73493]	>1 µM	4.4 µM	
Cc1nn(C)c(C)c1N[S+](=O)([O-])c1ccc(CNc2ccc(C(C)C)cc2)cc1 [DDD73505]	>1 µM	9.7 µM	
COc1cc(NCc2ccc([S+](=O)([O-])Nc3c(C)nn(C)c3C)cc2)cc(OC)c1OC [DDD73501]	>1 µM	19 µM	
Cc1cc([S+](=O)([O-])Nc2c(CC(C)C)nn(C)c2C)ccc1-c1cccc(CN(C)C)c1 [DDD99819]	0.043 µM		IC50 [1, 3]: 0.008 µM
COc1cc(C)c([S+](=O)([O-])Nc2c(C)nn(C)c2N2CCOCC2)c(C)c1C [DDD73271]	>1 µM	> 100 µM	
COc1ccc(SCc2ccc([S+](=O)([O-])Nc3c(C)nn(C)c3C)cc2)cc1 [DDD73231]	6.7 µM	0.76 µM	
Cc1nn(C)c(C)c1N[S+](=O)([O-])c1ccc(C2OCCO2)cc1 [DDD71276]	>1 µM	9.5 µM	
Cc1nn(C)c(C)c1N(C1CC1)[S+](=O)([O-])c1c(Cl)cc(Br)cc1Cl [DDD85591]	5.3 µM	0.59 µM	
Cc1nn(C)c(C)c1N[S+](=O)([O-])c1c(Cl)cc(C#Cc2ccccc2)cc1Cl [DDD73485]	>1 µM	34.3 µM	
Cc1nn(C)c(C)c1N[S+](=O)([O-])c1ccc(CNc2ccccc2)cc1 [DDD73509]	>1 µM	3.8 µM	
Cc1nn(C)c(C)c1N[S+](=O)([O-])c1ccccc1F [DDD71245]	>1 µM	5.6 µM	
Cc1cc(C(=O)O)cc([S+](=O)([O-])Nc2c(C)nn(C)c2C)c1C [DDD71608]	>1 µM	> 100 µM	

Reference: US9156811B2 (priority 2008, dated 2015)
